Consider 13 compounds from ChEMBL document CHEMBL5226340, “Chemical Biology of Sortase A Inhibition: A Gateway to Anti-infective Therapeutic Agents” (J Med Chem, 2021).

By MIC is commonly meant the lowest concentration that inhibits growth of the organism. The IC50 is the point on the concentration scale where inhibition reaches its midpoint. Broadly, the inhibition is the drop in the measured response relative to a control, in per cent. A word on the Ki: it is the equilibrium dissociation constant of an inhibitor or competing ligand from its target.

Test [1] deals with Staphylococcus aureus. The test is described as follows: Antibacterial activity against Staphylococcus aureus. The format is functional.
The target of test [2] is T1, Sortase A (Staphylococcus aureus, UniProt Q9S446).
T1 sequence (Q9S446 whole entry): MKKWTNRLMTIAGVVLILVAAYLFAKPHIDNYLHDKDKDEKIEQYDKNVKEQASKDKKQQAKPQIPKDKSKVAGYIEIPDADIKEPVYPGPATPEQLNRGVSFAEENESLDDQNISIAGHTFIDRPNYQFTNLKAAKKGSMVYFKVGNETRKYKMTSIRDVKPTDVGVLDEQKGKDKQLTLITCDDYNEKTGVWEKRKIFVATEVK
The test is described as follows: Inhibition of wild type recombinant Staphylococcus aureus ATCC 25904 Sortase A expressed in Escherichia coli BL21 using Dabcyl-QALPETGEE-Edans as substrate incubated for 30 mins followed by substrate addition and measured after 60 mins by FRET assay.

Test [3] has as its target T1, Sortase A. The test is described as follows: Inhibition of Staphylococcus aureus SrtA using FRET substrate incubated for 1 hr by FRET assay.
In test [4] the target is T1, Sortase A. The test is described as follows: Inhibition of Staphylococcus aureus SrtA expressed in Escherichia coli BL21 (DE3) cells using Abz-LPETG-Dap(Dnp) as substrate preincubated for 30 mins followed by substrate addition and further incubated for 30 mins by HPLC analysis.
In test [5] the target is T2, Sortase A (Staphylococcus aureus) (UniProt Q9S446).
T2 sequence (whole entry): T1 sequence (Q9S446 whole entry)
The test is described as follows: Inhibition of Staphylococcus aureus SrtA expressed in Escherichia coli BL21 (DE3) cells using Abz-LPETG-Dap(Dnp) as substrate assessed as kinact/ki.

Test [6] has as its target T1, Sortase A. The test is described as follows: Inhibition of C-terminal 6His-tagged recombinant Staphylococcus aureus SrtA with 1 to 59 residues truncated from N-terminus expressed in Escherichia coli BL21 (DE3) using dabcyl-QALPETGEE-edans as substrate preincubated for 1 hr followed by substrate addition and measured for 1 hr by FRET assay.
In test [7] the test system is Staphylococcus aureus. The test is described as follows: Inhibition of biofilm formation in Staphylococcus aureus ATCC 25923 at 100 uM incubated for 24 hrs by safranin staining based analysis relative to control. The format is functional.
Test [8] deals with Staphylococcus aureus. The test is described as follows: Inhibition of biofilm formation in Staphylococcus aureus ATCC 29213 at 100 uM incubated for 24 hrs by safranin staining based analysis relative to control. The format is functional.
Test [9] concerns Staphylococcus aureus. The test is described as follows: Inhibition of biofilm formation in Staphylococcus aureus ATCC 6538 at 100 uM incubated for 24 hrs by safranin staining based analysis relative to control. The format is functional.
The target in test [10] is T1, Sortase A. The test is described as follows: Inhibition of Staphylococcus aureus SrtA expressed in Escherichia coli by fluorescence based analysis.
The target in test [11] is T1, Sortase A. The test is described as follows: Inhibition of Staphylococcus aureus USA 300 SrtA expressed in Escherichia coli BL21 (DE3) cells using Dabcyl-QALPETGEE-Edans as substrate preincubated for 30 mins followed by substrate addition and further incubated for 1 hr by FRET assay.
The target in test [12] is T2, Sortase A (Staphylococcus aureus). The test is described as follows: Binding affinity to Staphylococcus aureus SrtA assessed as first order rate constant of inactivation.
For test [13] the target is unchanged. The test is described as follows: Binding affinity to Staphylococcus aureus SrtA using Abz-DNP as substrate assessed as second order rate constant of inhibition, kinact/ki.
The target in test [14] is T1, Sortase A. The test is described as follows: Binding affinity to Staphylococcus aureus SrtA assessed as inhibition constant.
In test [15] the target is T1, Sortase A. The test is described as follows: Inhibition of Staphylococcus aureus USA 300 SrtA expressed in Escherichia coli BL21 (DE3) cells using Dabcyl-QALPETGEE-Edans as substrate incubated for 1 hr by FRET assay.
Test [16] has as its target T1, Sortase A. The test is described as follows: Inhibition of Staphylococcus aureus SrtA using EDANS-Dabcyl as substrate by FRET assay.
The test system of test [17] is Staphylococcus aureus. The test is described as follows: Antibacterial activity against Staphylococcus aureus Newman assessed as inhibition of bacterial growth by spectrophotometer method. The test is classed as functional.
Test [18] deals with T1, Sortase A. The test is described as follows: Inhibition of Staphylococcus aureus SrtA using […] as substrate by FRET assay.
Test [19] concerns the target T1, Sortase A. The test is described as follows: Inhibition of Staphylococcus aureus ATCC 6538p SrtA using dabcyl-LPETG-edans as substrate incubated for 1 hr by fluorometric analysis.
The target of test [20] is T1, Sortase A. The test is described as follows: Inhibition of Staphylococcus aureus SrtA transpeptidation activity.
Test [21] concerns Staphylococcus aureus. The test is described as follows: Inhibition of biofilm formation in Staphylococcus aureus ATCC 6538 incubated for 24 hrs by crystal violet staining based analysis. The conditions noted are these: ATCC 6538, 24 h. The format is functional, organism-based.

In brackets after ≈: the same amount, converted by molar mass.

On to `COc1ccc(CCc2cc(OC)c(OC)c(OC)c2)cc1O`, for which, in the test with Staphylococcus aureus [1], inhibition of growth (MIC) required 1600 µM (≈ 509 µg/mL). Moreover, on Sortase A [2], the half-maximal inhibitory concentration (IC50) was 65.7 µM.

On Sortase A [3], `O=c1ccc2cc(O)c(O)cc2o1` [ESCULETIN] registered an IC50 of 36.2 µM.

Take `O=S(=O)(/C=C\C(F)(F)F)c1ccccc1`: at Sortase A [4], the concentration for half-maximal inhibition (IC50) turned out to be 190 µM. Moreover, in [5], the Ratio turned out to be 90 M⁻¹ min⁻¹.

Consider `CC(=O)/C(=N/Nc1ccccc1)C(=O)O`, for which the MIC with Staphylococcus aureus [1] was more than 270 µM. At Sortase A [6], the half-inhibitory concentration (IC50) stood at 80 µM. For the same compound, the inhibition at 100 µM in the test with Staphylococcus aureus [7], in the test on Staphylococcus aureus [8] and in the test on Staphylococcus aureus [9] was 60% each time.

The compound `Cc1cc2nc3[nH]c(=O)[nH]c(=O)c3nc2cc1C` [LUMICHROME] showed an IC50 against Sortase A [10] of 198 µM.

On Sortase A [11], `O=C(/C=C/c1ccccc1)c1ccccc1` [CHALCONE] registered a half-maximal inhibitory concentration (IC50) of 53.2 µM.

With `O=C1C[C@H]2O[C@H](CCc3ccccc3)C3=C(C(=O)C=CC3=O)[C@H]2O1`, the Kinact in [12] is 3.88 10^-2/min. Moreover, in test [13], the Ratio was 1.09 10^4/M/min and the kinact/Ki turned out to be 183 M⁻¹ s⁻¹. In addition, the Ki at Sortase A [14] was 3.57 µM.

As to `CCCC(=O)c1c(O)c(CC2=C(O)C(C)(C)C(=O)C(C(C)=O)=C2O)c(O)c(Cc2c(O)c(C(=O)CCC)c(O)c(C(C)C3=C(O)C(C)(C)C(=O)C(C(C)=O)=C3O)c2O)c1O` (stereo not given), at Sortase A [15], the IC50 worked out at 24.2 µM.

As to `O=C(NCCSSCCNC(=O)/C(Cc1ccc(O)c(Br)c1)=N/O)/C(Cc1ccc(O)c(Br)c1)=N/O` [PSAMMAPLIN A], on Sortase A [16], the IC50 worked out at 47.4 µM. In addition, the minimum inhibitory concentration (MIC) in the test with Staphylococcus aureus [17] was more than 200 µg/mL.

In the case of `O=c1cc(-c2ccc(O)cc2)oc2cc(O)c([C@@H]3O[C@H](CO)[C@@H](O)[C@H](O)[C@H]3O)c(O)c12` [ISOVITEXIN], the half-inhibitory concentration (IC50) at Sortase A [18] came to 67 µM.

`C[C@H]1CC[C@H]2[C@@H](C=C[C@@](C)(O)[C@]2(C)C(=O)CCO)C1` gave an IC50 at Sortase A [19] of 146 µM.

Compound `O=C(/C=C/c1ccc(O)cc1)O[C@H]1[C@@H](O)[C@H](O)C[C@](O)(C(=O)O)[C@H]1O` returned an IC50 at Sortase A [20] of 161 µM.

On to `CCOC(=O)/C(=N\Nc1c(F)cccc1F)C(=O)c1cc(C)nn1CC`, for which the MIC in the test with Staphylococcus aureus [1] is more than 200 µM. Moreover, the IC50 on Sortase A [6] stood at 75 µM; in the test on Staphylococcus aureus [21], 0.9 µM.
